Legend:
hypertensive rats = details: acute; cited from earlier work
muscle = details: in vivo; cited from earlier work
DIO mice = experiment: Prevention of dysglycemia and insulin resistance in DIO B6 mice (oral gavage, 8 w); format: in vivo; details: 100 mg/kg/day each, oral gavage
Experimental: MATSUDA index was calculated via: […] […] All cell lines were lysed in 0.1 M Tris-HCl, pH 6.8, 2% SDS, 10 mM sodium fluoride (SIGMA #S7920), 10 mM β-glycerophosphate (SIGMA #G6376), and 1 mM sodium vanadate (SIGMA #72060) and supernatant collected after 1 minute at 14,000 rpm. Islets (human and mouse) were lysed in 0.1 M Tris-HCl, pH 6.8, 2% SDS, protease inhibitor (Roche #04 693 124 001) and phosphatase inhibitor (Roche #04 906 837 001). […] The supernatant was collected after 2 min at 14,000 rpm. This procedure was repeated until all fat was eliminated and the supernatant was clear, at 4° C. Samples were analysed on 4-15% polyacrylamide gels. Values were normalised toward AMPKα, β-Actin, GAPDH or the respective non-phosphorylated counterpart. For RNA purification calf muscle, iWAT, interscapular BAT, and left lateral liver lobe was crushed in a pestle using liquid nitrogen before turning to respective RNA kit. RNA from liver was prepared using Total RNA isolation Nucleospin II Kit (Macherey-Nagel #740955.50). RNA from adipose tissue was prepared using RNeasy Lipid Tissue Mini kit (Qiagen #74804). RNA from calf muscle tissue was prepared using RNeasy Fibrous Tissue Mini kit (Qiagen #74704). First strand cDNA synthesis was done using SuperScript III (First-Strand Synthesis SuperMix for qRT-PCR, Invitrogen #11752-250) according to the manufacturer's instructions. Total RNA was prepared from isolated islets using RNeasy Micro Kit (Qiagen #74004) and first strand cDNA synthesis was done using Superscript III (Invitrogen #18080-051) according to the manufacturer's instructions. Quantification of mRNA expression levels was performed essentially as previously described (Reference 3).

[1] = system: diet-induced obese C57BL/6J mice; experiment: Combination therapy AMPK activator + SGLT2 inhibitor in DIO mice; format: in vivo; details: 2 weeks oral gavage, Compound 1 75 mg/kg, canagliflozin 10 mg/kg
Experimental: Male C57BL/6J mice, 8 weeks of age were purchased from Jackson, Charles River Laboratories, Inc. (Germany). All animals were housed in the Umeå University animal facility (Umeå Centre for Comparative Biology; UCCB) with a 12:12 hour light-dark cycle (lights on at 6 a.m.) and a constant temperature of 21° C. The animals were ear marked with a unique identification number, and groups of 5 mice were housed in transparent polycarbonate cages that comply with the requirements of the Code of Practice for the housing and care of animals used in scientific procedures. Wood chips were used as bedding material and environmental enrichment was provided. Animals were allowed to acclimate for 15 weeks to their new environment before the onset of the study. The animals were allowed ad libitum access to tap water throughout the accommodation and study period. During the acclimation period, the animals were allowed a standard pelleted diet (CRM (E) Rodent, Special Diets Services, Scanbur BK, Sweden). At the start of the study, the standard diet was changed to a very high fat diet (vHFD; Cat. No. D12492, Research Diets, Inc.) and this diet was kept throughout the whole study period. All of the procedures were approved by the Local Ethics Review Committee on Animal Experiments, Umeå Region.
23 Weeks old male C57BL/6J mice were fed HFD to promote diet-induced obesity (DIO) and administered once daily by oral gavage; vehicle (phosphate buffer pH 7.3, 2% w/v methyl cellulose; n=11), canagliflozin 10 mg/kg (n=14), Compound 1 at 75 mg/kg (n=14) and the combination of canagliflozin 10 mg/kg and Compound 1 at […] (n=15). After 2 weeks of treatment, fasted (6 hour) blood glucose and plasma insulin levels (determined in tail vein blood samples) were analysed. Food intake and weight were monitored throughout the study.
Blood samples were collected from the tail vein in Potassium-EDTA vials and plasma was separated by centrifugation and stored at −20° C. until assayed. Plasma insulin was determined with mouse insulin ELISA (Ultra Sensitive Mouse insulin ELISA Kit). Glucose concentrations were analysed in tail vein blood using a OneTouch® Ultra®2 Blood Glucose Meter (LifeScan, Inc).
Results shown in the figures are expressed as means±standard error of the mean (S.E.M.) for the number of animals per group. Statistical significance between the control group and the three treatment groups were analysed by Student's t-test, with P<0.05 considered statistically significant.

AMPK in HeLa cells = experiment: AMPK activation assay in HeLa cells (LKB1 null); format: cell-based, human; details: 1 μM, last 20 minutes
Experimental: All cell lines were lysed in 0.1 M Tris-HCl, pH 6.8, 2% SDS, 10 mM sodium fluoride (SIGMA #S7920), 10 mM β-glycerophosphate (SIGMA #G6376), and 1 mM sodium vanadate (SIGMA #72060) and supernatant collected after 1 minute at 14,000 rpm. Islets (human and mouse) were lysed in 0.1 M Tris-HCl, pH 6.8, 2% SDS, protease inhibitor (Roche #04 693 124 001) and phosphatase inhibitor (Roche #04 906 837 001). Right calf muscle, heart, iWAT, and interscapular BAT was crushed in a pestle using liquid nitrogen and homogenised in ice cold RIPA buffer (150 mM sodium chloride (SIGMA #S7653), 1.0% NP40 (USB), 0.5% sodium deoxycholate (SIGMA #D6750), 0.1% SDS, 50 mM Tris pH 8.0, 20 mM sodium pyrophosphate (SIGMA #71515), 10 mM sodium fluoride, 10 mM β-glycerolphosphate, 1 mM sodium vanadate and protease inhibitor cocktail (Roche #04693124001), 1 tablet/10 ml lysis buffer). The supernatant was collected after 2 min at 14,000 rpm. This procedure was repeated until all fat was eliminated and the supernatant was clear, at 4° C. Samples were analysed on 4-15% polyacrylamide gels. Values were normalised toward AMPKα, β-Actin, GAPDH or the respective non-phosphorylated counterpart.
Table 3 contains origin of cell lines, growth conditions and settings for activation of AMPK via the test material. […]

## NC(=O)c1ncn([C@@H]2O[C@H](CO)[C@@H](O)[C@H]2O)c1N [AICAR, 5-aminoimidazole-4-carboxyamide-1-β-D-ribofuranoside]
Hypertensive rats
  blood pressure: acutely lower blood pressure
muscle
  microvascular perfusion in muscle: increases microvascular perfusion in muscle

## CN(C)C(=N)N=C(N)N [Metformin, reference compound]
DIO mice; 6 w
  HFD-provoked increase in fasted glucose: no significant effect
  HFD-provoked increase in fasted plasma insulin: no significant effect
DIO mice; vs vehicle
  insulin resistance (HOMA-IR): no significant effect

## Cc1ccc([C@@H]2O[C@H](CO)[C@@H](O)[C@H](O)[C@H]2O)cc1Cc1ccc(-c2ccc(F)cc2)s1 [canagliflozin]
[1]
  HOMA-IR: lesser reduction
[1]; 6 hour fast
  fasted blood glucose: lesser reduction
  fasted plasma insulin: lesser reduction

## C[C@H](CCC(=O)O)C[C@H](C)C[C@H](C)C(=O)/C=C(\O)[C@H](C)C[C@H](C)C/C=C/[C@@H](C)[C@@H](O)[C@@H](C)[C@@H](O)C[C@@H]1CC[C@@](C)([C@H]2CC[C@@](C)([C@@H](C)O)O2)O1 [ionomycin, reference compound]
AMPK in HeLa cells
  AMPK activation (control): readily activated AMPK
